US20240082221A1, “COMPOSITIONS AND METHODS FOR THE IDENTIFICATION OF COMPOUNDS THAT PROTECT AGAINST LIPOFUSCIN CYTOTOXICITY” (priority 2021, published 2024)
“Also recorded” adds a separate entry of the source.

What was measured:
[1] = system: ARPE-19 cells
Experimental: Cell Viability Assay. […] 1× AlamarBlue solution prepared in OptiMEM was used to replace the media supernatant and the plate's fluorescence was determined at 555 nm excitation/585 nm emission with a SpectraMax M (Molecular Devices, CA, USA), after 1 h. […] The exact timing of appearance of far-red (DRAQ7=plasma membrane leakage) and blue (NUC405=caspase 3 activation) fluorescence signals was critical to differentiate apoptosis and necrosis from secondary events, such as membrane damage and generalized proteolytic activation during the late phase of apoptosis and necrosis, respectively.
Real time monitoring of necrotic and apoptotic cell-death. Cell-death assay to study Lipofuscin's dark toxicity was performed. 90% confluent ARPE-19 or hfRPE were incubated overnight in serum free media supplemented with indicated LB concentration. Viability was assessed at 24 hrs by AlamarBlue®, or microscopy with NUC405/DRAQ7. Real time monitoring of necrotic (red) and apoptotic (blue) cell-death was performed by automated fluorescence microscopy. The exact timing of appearance of far-red (DRAQ7=plasma membrane leakage) and blue (NUC405=caspase 3 activation) fluorescence signals was critical to differentiate apoptosis and necrosis from secondary events, such as membrane damage and generalized proteolytic activation during the late phase of apoptosis and necrosis, respectively.
Chemical inhibitors. Chemical inhibitors used in this study are described in FIG. 12.

[2] = system: pMLKL; assay: Fluorescence microscopy of pMLKL plasma membrane translocation in ARPE-19 monolayers; format: cell-based, Human; conditions: ARPE-19 with A2E or ATRD
Excerpt: Chronic accumulation of polymeric pMLKL could account for progressive damage in pigmented retinas as they amass LF.

[3] = system: IRE1α; assay: qPCR of spliced XBP1 (XBP1s) as readout of IRE1α activity in ARPE-19; format: cell-based, Human
Excerpt: RNA isolation and quantitative PCR. Total RNA was extracted from cultured cells or mouse eye RPE layer using the RNeasy Mini kit (QIAGEN). The total RNA was digested with deoxyribonuclease I to prevent amplification of genomic DNA. The total RNA then was reversed transcribed using High-Capacity cDNA Reverse Transcription Kit (ThermoFisher Scientific, cat.no. 4368814) and analyzed gene expression using SYBR Green Master Mix (ThermoFisher Scientific, cat.no. 4472908) in an Applied Biosystems StepOne real time PCR machine. GAPDH was used as a reference gene. […] After genes were amplified by real time PCR, some of the PCR products were separated by 2.5% agarose gel.

[4] = system: ARPE-19 cells; assay: Blue-light phototoxicity of A2E-loaded cells, AlamarBlue; format: cell-based, Human; conditions: A2E 5 μM O/N, blue light 10 min, viability after 24 hrs
Experimental: FIG. 18A: ARPE19 cells were pretreated for 1 hr with the […] of: eIF2a (Salubrinal (SAL), SAL003, or Guanabenz); eIF4 (Briciclib or eFT508); mTOR (Rapamycin, Torin-1); or the unspecific protein translation inhibitor (Cyclohexamide CHX) and then incubated with lethal doses of A2E (25 μM) for an additional 24 hrs in the presence of these drugs. Viability was assessed with AlamarBlue®. […] Viability was assessed with AlamarBlue®. […] ARPE-19 cells were incubated O/N with a non-toxic amount of A2E (5 μM) to allow its incorporation into lysosomes and after changing the media for PBS and irradiating for 10 min with blue light cells were maintained for an additional 24 hrs in Optimem before evaluating viability, using AlamarBlue®. FIG. 18D: Fluorescence microscopy of cells incubated with lethal amounts of A2E (25 μM) in Optimem for 24 hrs. Green fluorescence corresponds to A2E deposits. Nuclei are stained with the DNA dye, Hoechst, in viable cells (blue) and with Hoechst and DRAQ7 (a DNA dye that only enter cells with disrupted membranes) in dead cells (purple).
Blue light treatment. ARPE19 cells were grown at 70% confluence and were treated with or without 20 μM A2E in culture medium for 24 h. Then, HBSS replaced the cell culture medium before blue light treatment. ARPE19 cells with or without A2E intake, were illuminated by 460+20 nm wavelength light for 20 min.

[5] = Oxidative damage by H2O2; format: cell-based
[6] = system: IRE1α; assay: Western blot of light-independent phosphorylation of IRE1α induced by LF; format: cell-based
Experimental: Immunoblotting. Total cell lysates were extracted using RIPA lysis buffer (50 mM TrisHCl, Ph 8.0, 150 mM NaCl, 1% NP40, 0.5% Sodium Deoxycholate, 0.1% SDS, protease-phosphatase inhibitor) after the incubation of the specific sample group in a 48 well plate. Sonication or syringing (20 times) was done followed by centrifugation at 12,000×g for 10 mins and the supernatant was collected and stored in −80° C. Proten concentration from homogenates were assessed by Pierce Rapid Gold BCA protein assay kit (ThermoFisher Scientific, cat.no. A53225). Then 30 μg of protein was analyzed by standard SDS-PAGE gel. Samples were mixed 4:1 (v:v) with Nupage loading buffer with or without 8% 0-mercaptoethanol and heated for 10 min at 72° C. SDS-PAGE was done using 4-12% Nupage gel and buffer (Life, NP0335BOX). Next, SDS-PAGE gel was transferred to nitrocellulose membrane (Whatman, PROTAN BA83) overnight at 20V. […] After 3 more washed membranes were probed with enhanced chemiluminescence (ECL) reagent and detected using an X-ray films for chemiluminescence image (GE healthcare, RPN2106). Scanning/imaging and quantitation of the image was done using silverfast 8 application software and Fiji Image J. Antibodies for Western blotting were list in FIG. 10.

[7] = system: lysosomal membranes; format: cell-based
Excerpt: (§1) Next, A2E buildups were imaged using a combination of DIC and fluorescence: A2E appeared as granules with well-defined edges, both within cells or after drying over a coverslip (FIGS. 14D and 14E). Next, the ability of the suspected A2E crystals to damage lysosomal membranes was investigated. A recently developed galectin-3 puncta assay for early detection of lysosomal membrane permeabilization (LMP) was used. Briefly, cytosolic galectin-3 rapidly binds to the glycocalyx in the luminal face of lysosomal membranes as they become leaky, which is easily detectable with anti-galectin high-affinity antibodies. L-Leucyl-L-Leucine methyl ester (LLO) a lysosomotropic peptide that causes LMP was used as positive control of puncta formation (FIG. 14E). […] LMP was confirmed by showing the […] of cathepsin D, as surrogate of lysosomal enzymes. […] Also, very remarkable was the observation that the same unique pattern of protection with arimoclomol and Nec-7 but not Nec-1 was observable for LLO (FIG. 14K), consistent with the idea that necroptosis by A2E is being caused by LMP.

[8] = system: cathepsin D; format: cell-based
Excerpt: as §1

[9] = system: human MLKL; assay: Western blot of Ser358 phospho-MLKL, phosphorylation and polymerization of MLKL; format: cell-based; conditions: absence of light
Experimental: (§2) Immunoblotting. Total cell lysates were extracted using RIPA lysis buffer (50 mM TrisHCl, Ph 8.0, 150 mM NaCl, 1% NP40, 0.5% Sodium Deoxycholate, 0.1% SDS, protease-phosphatase inhibitor) after the incubation of the specific sample group in a 48 well plate. Sonication or syringing (20 times) was done followed by centrifugation at 12,000×g for 10 mins and the supernatant was collected and stored in −80° C. Proten concentration from homogenates were assessed by Pierce Rapid Gold BCA protein assay kit (ThermoFisher Scientific, cat.no. A53225). Then 30 μg of protein was analyzed by standard SDS-PAGE gel. Samples were mixed 4:1 (v:v) with Nupage loading buffer with or without 8% 0-mercaptoethanol and heated for 10 min at 72° C. SDS-PAGE was done using 4-12% Nupage gel and buffer (Life, NP0335BOX). Next, SDS-PAGE gel was transferred to nitrocellulose membrane (Whatman, PROTAN BA83) overnight at 20V. The following day, 5% milk in TBS was used for 2 h blocking the membrane and then primary antibody was added in TBST (TBS, 0.1% Tween-20) for overnight at 4° C. Next day membranes were washed and incubated for 2 hours at room temperature with HRP conjugated secondary antibody (cat #G21234, Invitrogen) at 1:10,000 dilution. After 3 more washed membranes were probed with enhanced chemiluminescence (ECL) reagent and detected using an X-ray films for chemiluminescence image (GE healthcare, RPN2106). Scanning/imaging and quantitation of the image was done using silverfast 8 application software and Fiji Image J. Antibodies for Western blotting were list in FIG. 10.
For its phosphorylation, MLKL and its kinase need to be recruited into multiprotein complexes, known as necrosomes (FIG. 4O). Necrosomes are not well conserved among species and vary also with the nature of the stimuli that triggers their formation. […] Considering that phosphorylation of human MLKL at Ser358 (pMLKL), is a hallmark triggering event and marker of necroptosis, the Ser358-phosphorylation and polymerization status of MLKL in cells with LF was determined. […] A prerequisite for the assembly of these RIP kinases into necrosomes was their phosphorylation.

[10] = Detection of lipid bisretinoids aggregation by filter passage; format: physicochemical
Excerpt: Detection of lipid bisretinoids aggregation.

[11] = system: UPR (PERK and ATF6 branches); assay: Western blot of ER-stress markers (p-eIF2a, ATF4, BiP, ATF6) without illumination; format: cell-based, Human
Experimental: as §2
The causal link between LF accumulation and ER-stress without light assistance was analyzed (FIG. 6A). […] The activation of the IRE1α branch was visualized by qPCR.

SMILES: O=C(/C=C/c1ccccc1)NC(NC(=S)Nc1cccc2cccnc12)C(Cl)(Cl)Cl (stereo not shown) [Salubrinal]
- protection against lethal doses of A2E, viability ([1]; ARPE19 pretreated 1 hr, then A2E 25 μM for 24 hrs in presence of drug, AlamarBlue): protected against lipofuscin
- requirement of PERK / ATF4 for protection against lipofuscin ([1]; with PERK inhibitor GSK2606414 or ATF4-shRNA, A2E 25 μM 24 hrs): needs PERK but not ATF4 to exert protection against lipofuscin
- effect on LF-induced pMLKL plasma membrane localization [2]: abrogated
- effect on LF-induced XBP1 splicing (XBP1s, IRE1α activity) ([3]; ARPE-19, qPCR, listed as SAL): inhibits IRE1α signaling; also recorded: abrogated
- protection against phototoxic decomposition of lipid bisretinoids [4]: does not protect against the phototoxic decomposition of lipid bisretinoids

SMILES: CC(=O)N[C@@H](CS)C(=O)O [NAC, N-acetyl cysteine]
- prevention of oxidative damage by H2O2 [5]: effectively prevented oxidative damage by H2O2
- light-independent phosphorylation of IRE1α induced by LF in presence of antioxidant [6]: proceeded unaffected

SMILES: CC(C=CC1=C(C)CCCC1(C)C)=CC=CC(C)=Cc1cc(C=CC=C(C)C=CC2=C(C)CCCC2(C)C)cc[n+]1CCO [A2E, N-retinylidene-N-retinylethanolamine]
- cell death in ARPE19 cells exposed to the substance ([1]; light-independent): Dose dependent cell death
- lysosomal membrane permeabilization (galectin-3 puncta) [7]: clearly caused puncta staining and therefore LMP
- cathepsin-D activity [8]: caused reduction in cathepsin-D activity
- induction of XBP1s ([3]; in the dark, qPCR): dose and time-dependent inductions of XBP1s
- induction of phosphorylation and polymerization of MLKL [9]: dose-dependent phosphorylation and polymerization of MLKL
- passage through 3 μm filter in aqueous milieu ([10]; 3 μm cut-off, same material): did cross membranes with 3 μm cut-off
- passage through 0.45 μm filter in aqueous milieu ([10]; 450 nm filter pores): could not move across 450 nm filter pores
- cleavage of ATF6 ([11]; 6 hrs treatment, 20 μM A2E): significant cleavage
- Ser51 phosphorylation of eIF2a ([11]; without light): strongest Ser51 phosphorylation of eIF2a
